Data on 1 molecule can be found in patent US8722849B2, “Polypeptides” (Novo Nordisk A/S, priority 2011, dated 2014).

As usually defined, the EC50 is the midpoint of the concentration-response curve. Broadly, the solubility is the concentration that dissolves in the medium under given conditions.

≈ marks a conversion by molar mass, not a printed value. Read-outs that look alike come from different tables or passages of the source. Starred links: 1 amine or outer side, 2 acyl side, 3 side chain; linkers in the order of their positions; H or OH if unused. Positions of bridges follow the written chain, without caps; N, C: chain ends. Residues, ends and D or L forms follow the SMILES beside them. *: point of attachment. C20 diacid = O=C(O)CCCCCCCCCCCCCCCCCCC(=O)*; γGlu = O=C(O)[C@H](CCC(=O)[*:2])N[*:1]

In data set [1] the target is T1, human amylin receptor (amylin 3(a) receptor: human calcitonin receptor + RAMP-3) (Homo sapiens, UniProt O60896+P30988).
T1 construct: expressed in transfected cells; host or cells: BHK570
T1 sequence (P30988 25-474): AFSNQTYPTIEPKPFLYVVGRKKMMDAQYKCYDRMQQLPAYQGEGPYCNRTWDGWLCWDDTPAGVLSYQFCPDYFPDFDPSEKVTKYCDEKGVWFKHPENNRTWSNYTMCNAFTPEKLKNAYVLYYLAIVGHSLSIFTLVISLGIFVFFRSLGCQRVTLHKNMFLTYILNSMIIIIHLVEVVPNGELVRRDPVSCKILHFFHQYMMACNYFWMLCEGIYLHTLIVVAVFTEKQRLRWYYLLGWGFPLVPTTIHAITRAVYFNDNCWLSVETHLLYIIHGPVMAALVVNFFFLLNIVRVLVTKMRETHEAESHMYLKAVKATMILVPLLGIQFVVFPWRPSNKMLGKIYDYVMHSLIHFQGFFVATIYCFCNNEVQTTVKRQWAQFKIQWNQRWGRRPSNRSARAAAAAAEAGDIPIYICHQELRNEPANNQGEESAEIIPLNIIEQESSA
T1 sequence (O60896 24-148 partner): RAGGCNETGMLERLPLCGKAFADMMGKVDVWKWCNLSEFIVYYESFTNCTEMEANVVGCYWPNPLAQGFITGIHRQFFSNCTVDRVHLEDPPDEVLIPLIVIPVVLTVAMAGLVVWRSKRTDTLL
As to the kind of experiment: Assay (II)a functional CRE-luciferase assay, human amylin receptor. It is filed as cell-based. The conditions noted are these: Table 2; BHK amylin 3(a)-receptor/CRE-luc cells.

The target of data set [2] is T2, human calcitonin receptor (Homo sapiens, UniProt P30988).
T2 construct: expressed in transfected cells; host or cells: BHK570
T2 sequence (P30988 25-474): T1 sequence (P30988 25-474)
Put plainly: Assay (II)a functional CRE-luciferase assay, human calcitonin receptor. The conditions noted are these: Table 7; human calcitonin (CTa) receptor. It is filed as cell-based.

The nature of data set [3]: Assay (IV) determination of solubility. It is filed as physicochemical. Put shortly: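 Eight 100 mM buffers (glycylglycine pH 3.0–5.0, bistrispropane pH 6.0–8.0) each received an equal volume of polypeptide dissolved in water at ~500 nmol/ml. Soluble polypeptide was measured by HPLC following 18 hours at room temperature and centrifugation.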

`CC[C@H](C)[C@H](NC(=O)[C@H](CCC(=O)O)NC(=O)CNC(=O)[C@H](Cc1ccccc1)NC(=O)[C@H](CC(N)=O)NC(=O)[C@H](CC(N)=O)NC(=O)[C@H](CO)NC(=O)[C@H](CO)NC(=O)[C@H](CCCNC(=N)N)NC(=O)[C@H](Cc1c[nH]cn1)NC(=O)[C@H](CC(C)C)NC(=O)[C@H](Cc1ccccc1)NC(=O)[C@H](CCC(=O)O)NC(=O)[C@H](C)NC(=O)[C@H](CC(C)C)NC(=O)[C@H](CCCNC(=N)N)NC(=O)[C@H](CCC(N)=O)NC(=O)[C@@H](NC(=O)[C@H](C)NC(=O)[C@@H]1CSSC[C@H](NC(=O)[C@H](Cc2c[nH]cn2)NC(=O)CC[C@H](NC(=O)CCCCCCCCCCCCCCCCCCC(=O)O)C(=O)O)C(=O)N[C@@H](CC(N)=O)C(=O)N[C@@H]([C@@H](C)O)C(=O)N[C@@H](C)C(=O)N[C@@H]([C@@H](C)O)C(=O)N1)[C@@H](C)O)C(=O)N[C@@H](CC(C)C)C(=O)N[C@@H](CO)C(=O)N[C@@H](CCCNC(=N)N)C(=O)N[C@H](C(=O)N[C@@H](CC(N)=O)C(=O)N[C@H](C(=O)NCC(=O)N[C@@H](CO)C(=O)N[C@@H](CC(N)=O)C(=O)N[C@H](C(=O)N[C@@H](Cc1ccc(O)cc1)C(N)=O)[C@@H](C)O)C(C)C)[C@@H](C)O` [Example 7, N-alpha-[(S)-4-Carboxy-4-(19-carboxynonadecanoylamino)butyryl]-[His1,Glu14,His17,Arg18,Glu25,Ser28,Arg29]-pramlintide] ({C20 diacid-γGlu}-HCNTATCATQRLAEFLHRSSNNFGEILSRTNVGSNTY-NH2; disulfide 2-7 (inferred); C-terminus assumed): the values for the EC50 in data set [1] and in data set [2] were 0.0779 nM and 0.131 nM, respectively. Also, the solubility at 18 h is 69 µM (≈ 315 µg/mL) in data set [3] (bistrispropane buffer, pH 6, pH 6.0, read-out: Solubility pH 6.0); 32 µM (≈ 146 µg/mL) in data set [3] (bistrispropane buffer, pH 6.5, pH 6.5, read-out: Solubility pH 6.5); 42 µM (≈ 192 µg/mL) in data set [3] (bistrispropane buffer, pH 7, pH 7.0, read-out: Solubility pH 7.0); 89 µM (≈ 406 µg/mL) in data set [3] (bistrispropane buffer, pH 7.5, pH 7.5, read-out: Solubility pH 7.5); 155 µM (≈ 708 µg/mL) in data set [3] (bistrispropane buffer, pH 8, pH 8.0, read-out: Solubility pH 8.0); > 200 µM in data set [3] (glycylglycine buffer, pH 3, pH 3.0, read-out: Solubility pH 3.0). Also, the solubility at 18 h in data set [3] (glycylglycine buffer, pH 4, pH 4.0, 18 hours at room temperature, Table 2, read-out: Solubility pH 4.0) is > 200 µM; in data set [3] (glycylglycine buffer, pH 4, pH 4.0, read-out: Solubility pH 4.0), > 200 µM; in data set [3] (glycylglycine buffer, pH 5, pH 5.0, read-out: Solubility pH 5.0), 13 µM (≈ 59.3 µg/mL).
